In brackets after ≈: the same amount, converted by molar mass.
How the values were obtained:
[1] = tested on: Klebsiella pneumoniae ATCC 10 031; assay: serial dilution test in microtiter system (bacteriostasis, MIC); format: cell-based; details: ATCC10, liquid medium, 18 to 20 h at 37°C, read-out: MHK-Werte Kl. pneum. ATCC 10 031
Protocol: (§1) Für die Untersuchungen wurde die Methode des Reihenverdünnungstestes im Mikrotitersystem angewandt. Die Prüfung der Substanzen auf Bakteriostase erfolgte in flüssigem Medium. Es wurde die Bakteriostasewirkung bei folgenden Konzentrationen untersucht.
(§2) Es wurde ein Nährboden folgender Zusammensetzung benutzt: 10 g Pepton, 8 g Fleischextrakt-Oxoid, 3 g Natriumschlorid, 2 g sek. Natriumphosphat werden mit dest. Wasser auf 1000 ml aufgefüllt (pH 7,2-7,4). Lediglich bei der Testung gegen Streptokokken wurde 1% Glucose hinzugefügt. Das Alter der Primärkulturen betrug etwa 20 Stunden. Die Einstellung der Keimsuspension erfolgte am Photometer (nach "Eppendorf") (Reagenzglas-Durchmesser 14 mm, Filter 546 nm) anhand der Trübung einer Bariumsulfat-Vergleichssuspension, die durch eine Bariumsulfat-Aufschwemmung erzeugt wurde, welche durch die Zugabe von 3,0 ml 1%ige Bariumchloridlösung in 97 ml 1%ige Schwefelsäure entstand. Nach der Einstellung wurden Streptococcus Aronson im Verhältnis 1:15 und die übrigen Testkeime im Verhältnis 1:1500 mit einer Kochsalzlösung weiter verdünnt.
(§3) 16 mg der jeweiligen Substanz wurden in 10 ml-Meßkolben eingewogen und mit dem Lösungsmittel bis zur Marke aufgefüllt. Die weitere Verdünnungsreihe wurde mit destilliertem Wasser oder dem jeweiligen Lösungsmittel hergestellt.
(§4) Die Vertiefungen der Mikrotiterplatten wurden mit 0,2 ml Nährmedium, 0,01 ml der entsprechenden Substanzverdünnung und mit einem Tropfen Keimsuspension (0,01 ml) beschickt und 18 bis 20 Stunden bei 37°C bebrütet. Eine Lösungsmittelkontrolle wurde stets mitgeführt.
(§5) Die Ablesung wurde makroskopisch vorgenommen, wobei die jeweilige Grenkonzentration (= niedrigste noch bakteriostatisch wirksame Konzentration) ermittelt wurde.
(§6) Als Testorganismen wurden benützt: - Staphylococcus aureus SG 511, Escherichia coli ATCC 11 775, Pseudomonas aeruginosa Hamburgensis und Walter, Serratia marcescens ATCC 13 880, Klebsiella pneumoniae ATCC 10 031 und BC 6, Proteus mirabilis Hamburgensis, Proteus rettgeri BC 7 und Enterobacter cloacae ATCC 13 047.
(§7) In der folgenden Tabelle 2 sind die ermittelten minimalen Hemmkonzentrationen (MIC) für typische Vertreter der erfindungsgemäßen Verbindungen aufgeführt, wobei sich die Ziffern auf die Penicilline der Tabelle 1 Seite 18 beziehen.

[2] = tested on: Enterobacter cloacae ATCC 13 047; assay: as above; format: cell-based; details: ATCC13, liquid medium, 18 to 20 h at 37°C, read-out: MHK-Werte Eb. cloacae 13 047
Protocol: as §1, §2, §3, §4, §5, §6, §7

[3] = tested on: Proteus mirabilis Hamburgensis; assay: as above; format: cell-based; details: liquid medium, 18 to 20 h at 37°C, read-out: MHK-Werte Prot. mir. Hbg.
Protocol: as §1, §2, §3, §4, §5, §6, §7

[4] = tested on: Pseudomonas aeruginosa Hamburgensis; assay: as above; format: cell-based; details: liquid medium, 18 to 20 h at 37°C, read-out: MHK-Werte Pseud. aerug. Hbg.
Protocol: as §1, §2, §3, §4, §5, §6, §7

[5] = tested on: Pseudomonas aeruginosa Walter; assay: as above; format: cell-based; details: liquid medium, 18 to 20 h at 37°C, read-out: MHK-Werte Pseud. aerug. Walter
Protocol: as §1, §2, §3, §4, §5, §6, §7

Proteus rettgeri BC 7 = assay: as above; format: cell-based; details: Providencia rettgeri, BC7; liquid medium, 18 to 20 h at 37°C; read-out: MHK-Werte Prot. rettg. BC 7
Protocol: as §1, §2, §3, §4, §5, §6, §7

[6] = tested on: Escherichia coli ATCC 11 775; assay: as above; format: cell-based; details: ATCC11, liquid medium, 18 to 20 h at 37°C, read-out: MHK-Werte E.coli ATCC 11 755
Protocol: as §1, §2, §3, §4, §5, §6, §7

[7] = tested on: Klebsiella pneumoniae BC 6; assay: as above; format: cell-based; details: BC6, liquid medium, 18 to 20 h at 37°C, read-out: MHK-Werte Kl. pneum. BC 6
Protocol: as §1, §2, §3, §4, §5, §6, §7

[8] = tested on: Serratia marcescens ATCC 13 880; assay: as above; format: cell-based; details: ATCC13, liquid medium, 18 to 20 h at 37°C, read-out: MHK-Werte Serr. marcesc. ATCC 13 880
Protocol: as §1, §2, §3, §4, §5, §6, §7

[9] = tested on: Staphylococcus aureus SG 511; assay: as above; format: cell-based; details: SG511, liquid medium, 18 to 20 h at 37°C, read-out: MHK-Werte Staph. aureus SG 511
Protocol: as §1, §2, §3, §4, §5, §6, §7

E.coli ATCC 11 775 = assay: experimental intraperitoneal infection in mice, ED50 (survival); format: in vivo, Mäuse; details: Escherichia coli, ATCC 11 / ATCC 1175, sc, 168 h; female NMRI mice, i.p. infection, s.c. application, treated once, 7 days observation
Protocol: Eine Reihe der erfindungsgemäßen Verbindungen wurde in vivo bei experimentellen Infektionen an Mäusen untersucht. Man verwendete als pathogene Bakterien E.coli ATCC 11 775 und Pseudomonas aeruginosa Walter. Es wurde eine intraperitoneale Infektion mit 0,2 ml einer 5%igen Mucinsuspension der Bakterien gesetzt. Dies entspricht etwa 2x10^6 Keime E.coli bzw. 8x10^5 Keime Pseudomonas/Maus. Weibliche Mäuse vom Stamm NMRI wurden in Gruppen von jeweils 10 Tieren aufgeteilt, zwei Gruppen blieben unbehandelt, die restlichen Gruppen wurden mit verschiedenen Dosen der jeweiligen erfindungsgemäßen Penicilline zur Bestimmung der ED50 (Dosis, bei der 50 % der Tiere überleben) behandelt. Bei der E.coli-Infektion wurde einmal therapiert. Bei der Pseudomonas-Infektion wurde dreimal behandelt.
Der Beobachtungszeitraum betrug in beiden Fällen 7 Tage. Die Ergebnisse dieser Teste mit repräsentativen Vertretern der erfindungsgemäßen Penicilline sind in der Tabelle 3 dargestellt.

Compound	MIC [1] [µg/mL]	MIC [2] [µg/mL]	MIC [3] [µg/mL]	MIC [4] [µg/mL]	MIC [5] [µg/mL]	MIC (Proteus rettgeri BC 7) [µg/mL]	MIC [6] [µg/mL]	MIC [7] [µg/mL]	MIC [8] [µg/mL]	MIC [9] [µg/mL]	ED50 (E.coli ATCC 11 775) [mg/kg]
CC1(C)S[C@@H]2[C@H](NC(=O)[C@H](NC(=O)N3CCN(S(C)(=O)=O)C3=O)c3ccccc3)C(=O)N2[C@H]1C(=O)O [B, Mezlocillin, reference compound]	4 (≈ 7.41 µM)	4 (≈ 7.41 µM)	0.25 (≈ 0.463 µM)	16 (≈ 29.7 µM)	32 (≈ 59.3 µM)	1 (≈ 1.85 µM)	2 (≈ 3.71 µM)	4 (≈ 7.41 µM)	0.5 (≈ 0.927 µM)	0.25 (≈ 0.463 µM)	> 100
CC1(C)S[C@@H]2[C@H](NC(=O)[C@H](NC(=O)Nc3cnccc3O)c3ccccc3)C(=O)N2[C@H]1C(=O)O [C, D-α-[(4-Hydroxy-3-pyridyl)-ureido]-benzylpenicillin-Natrium, reference compound]	32 (≈ 65.9 µM)	8 (≈ 16.5 µM)	0.25 (≈ 0.515 µM)	8 (≈ 16.5 µM)	8 (≈ 16.5 µM)	1 (≈ 2.06 µM)	2 (≈ 4.12 µM)	32 (≈ 65.9 µM)	0.5 (≈ 1.03 µM)	–	–
CC1(C)S[C@@H]2[C@H](NC(=O)[C@H](NC(=O)Nc3cnc(Nc4ccc(S(N)(=O)=O)cc4)nc3O)c3cccs3)C(=O)N2[C@H]1C(=O)O [Verbindung 2]	2 (≈ 3.02 µM)	2 (≈ 3.02 µM)	0.06 (≈ 0.0905 µM)	4 (≈ 6.04 µM)	2 (≈ 3.02 µM)	0.5 (≈ 0.754 µM)	0.5 (≈ 0.754 µM)	1 (≈ 1.51 µM)	0.25 (≈ 0.377 µM)	0.12 (≈ 0.181 µM)	–
CC1(C)S[C@@H]2[C@H](NC(=O)[C@H](NC(=O)Nc3cnc(Nc4cccc(S(N)(=O)=O)c4)nc3O)c3ccc(O)cc3)C(=O)N2[C@H]1C(=O)O [Verbindung 5]	2 (≈ 2.97 µM)	1 (≈ 1.49 µM)	0.06 (≈ 0.0892 µM)	2 (≈ 2.97 µM)	2 (≈ 2.97 µM)	0.25 (≈ 0.372 µM)	0.25 (≈ 0.372 µM)	2 (≈ 2.97 µM)	0.25 (≈ 0.372 µM)	0.5 (≈ 0.743 µM)	–
CNS(=O)(=O)c1ccc(Nc2ncc(NC(=O)N[C@@H](C(=O)N[C@@H]3C(=O)N4[C@@H]3SC(C)(C)[C@@H]4C(=O)O)c3ccccc3)c(O)n2)cc1 [Verbindung 8]	0.5 (≈ 0.745 µM)	0.5 (≈ 0.745 µM)	0.03 (≈ 0.0447 µM)	1 (≈ 1.49 µM)	2 (≈ 2.98 µM)	0.5 (≈ 0.745 µM)	0.12 (≈ 0.179 µM)	1 (≈ 1.49 µM)	0.12 (≈ 0.179 µM)	0.12 (≈ 0.179 µM)	–
CC1(C)S[C@@H]2[C@H](NC(=O)[C@H](NC(=O)Nc3cnc(Nc4ccc(S(N)(=O)=O)cc4)nc3O)C3=CCC=CC3)C(=O)N2[C@H]1C(=O)O [Verbindung 12]	–	–	–	–	–	–	–	–	–	–	5
CNS(=O)(=O)c1ccc(Nc2ncc(NC(=O)N[C@@H](C(=O)N[C@@H]3C(=O)N4[C@@H]3SC(C)(C)[C@@H]4C(=O)O)c3ccc(O)c(Cl)c3)c(O)n2)cc1 [Verbindung 13]	2 (≈ 2.77 µM)	1 (≈ 1.39 µM)	0.25 (≈ 0.347 µM)	2 (≈ 2.77 µM)	2 (≈ 2.77 µM)	0.5 (≈ 0.693 µM)	0.25 (≈ 0.347 µM)	1 (≈ 1.39 µM)	0.25 (≈ 0.347 µM)	0.25 (≈ 0.347 µM)	–
CN(C)S(=O)(=O)c1ccc(Nc2ncc(NC(=O)N[C@@H](C(=O)N[C@@H]3C(=O)N4[C@@H]3SC(C)(C)[C@@H]4C(=O)O)c3ccc(O)cc3)c(O)n2)cc1 [Verbindung 15]	1 (≈ 1.43 µM)	2 (≈ 2.85 µM)	0.12 (≈ 0.171 µM)	2 (≈ 2.85 µM)	2 (≈ 2.85 µM)	1 (≈ 1.43 µM)	0.25 (≈ 0.357 µM)	1 (≈ 1.43 µM)	0.25 (≈ 0.357 µM)	0.5 (≈ 0.714 µM)	–

— patent publication EP0051773A1, “Penicillins, their salts, process for their preparation and pharmaceutical compositions containing them” (Dr. Karl Thomae GmbH, priority 1980, dated 1982)
